One experiment deals with DRB1*0101 (Homo sapiens, UniProt P01903+P01911, A100R/D57E/F55L/F60I/F76Y/I96L/L162R/M171V/P40L/Q125E/R42F/V115G/Y59C). In words: biochemical. It is filed as binding.
The next experiment deals with DRB1*0301 (Homo sapiens, UniProt P01903+P01911, A100K/A102G/A103R/A169T/F55Y/I96L/K41T/L162R/M171V/P40S/Q125H/Q178H/Q39Y/R42S/S66N/T106N/T262R/W38E/Y61H). In words: biochemical. It is filed as binding.
Another experiment concerns the target DRB1*0401 (Homo sapiens, UniProt P01903+P01911, A100K/A169T/F76Y/I96L/K127E/L162R/M171V/N62H/P40V/Q125Y/R42H/S133A/S149N/S66Y/V115G/V209L/W38E). The experiment can be described thus: biochemical. It is filed as binding.
The next experiment has as its target DRB1*0404 (Homo sapiens, UniProt P01903+P01911, A100R/A169T/F76Y/I96L/K127E/L162R/M171V/N62H/P40V/Q125Y/R42H/S133A/S149N/S66Y/V209L/W38E). The experiment can be described thus: biochemical. It is filed as binding.
Another experiment deals with DRB1*0405 (Homo sapiens, UniProt P01903+P01911, A100R/A169T/D86S/F76Y/I96L/K127E/L162R/M171V/N62H/P40V/Q125Y/R42H/S133A/S149N/S66Y/V115G/V209L/W38E). In words: biochemical. It is filed as binding.
The target in a further experiment is DRB1*0701 (Homo sapiens, UniProt P01903+P01911, A100R/A102G/A103Q/D57E/D86V/E43K/F76Y/K127E/L162R/M171V/P40G/Q125H/Q99D/R33Q/R42Y/R54Q/S133A/S66F/T210M/V115G/Y107V/Y59L/Y89S). The experiment can be described thus: biochemical. It is filed as binding.
A further experiment deals with DRB1*0802 (Homo sapiens, UniProt P01903+P01911, A100R/A103L/A169T/F76Y/H45Y/I96F/K41T/L162R/M171V/P40S/Q125H/Q178H/Q39Y/Q99D/R218S/R42G/S66Y/V115G/W38E). In words: biochemical. It is filed as binding.
A further experiment has as its target DRB1*0901 (Homo sapiens, UniProt P01903+P01911, A100R/A103E/D57H/D86V/F55Y/F60I/F76Y/I96F/K127E/L162R/M171V/P40D/Q125H/Q99R/R33Q/R42F/S133A/S66N/T210M/V115G/W38K/Y107V/Y59G/Y89S). In words: biochemical. It is filed as binding. To be noted: competitive inhibition of radiolabeled standard peptide, read-out: Binding Affinity (nM) DRB1*0901.
The next experiment addresses DRB1*1101 (Homo sapiens, UniProt P01903+P01911, A100R/A169T/A87E/I96F/K41T/L162R/M171V/P40S/Q125H/Q178H/Q39Y/Q99D/R42S/S66Y/T262R/V115G/W38E). The experiment can be described thus: biochemical. It is filed as binding.
A further experiment concerns the target DRB1*1302 (Homo sapiens, UniProt P01903+P01911, A100E/A169T/K41T/L162R/M171V/P40S/Q125H/Q178H/Q39Y/Q99D/R42S/S66N/T262R/V115G/W38E/Y61H). The experiment can be described thus: biochemical. It is filed as binding. To be noted: competitive inhibition of radiolabeled standard peptide, read-out: Binding Affinity (nM) DRB1*1302.
The target in another experiment is DRB1*1501 (Homo sapiens, UniProt P01903+P01911). The experiment can be described thus: biochemical. It is filed as binding.
The target in the next experiment is DRB3*0101 (Homo sapiens, UniProt P01903+P79483). In words: biochemical. It is filed as binding.
In another experiment the target is DRB4*0101 (Homo sapiens, UniProt P01903+P13762, G164S). The experiment can be described thus: biochemical. It is filed as binding.
The target in the next experiment is DRB5*0101 (Homo sapiens, UniProt P01903+Q30154). In words: biochemical. It is filed as binding.
The target of experiment [1] is T1, HLA-A*0201 (HLA-A2:Ig fusion protein) (Homo sapiens, UniProt P04439, D140Y/D185E/D98H/E176V/E277Q/G131W/G231S/I119V/I121R/I166T/I218V/L300P/L318F/N151K/N90K/P208A/P217A/Q86G/Q94H/R138H/R169H/T345S).
T1 construct: two extracellular portions of the major histocompatibility complex (MHC) class I HLA-A2 domains fused to the […] of a mouse IgG1 antibody; purchased BD Biosciences (HLA-A2:Ig); Fitzgerald Industries (β2-microglobulin)
The experiment can be described thus: Competitive binding assay using HLA-A2:Ig fusion protein (fluorescence polarization). The procedure:
The labeled peptide ([…]) was commercially synthesized by GenScript Corporation as a reference peptide for the binding assay. A fluorescein moiety was introduced into position P8 of the designed peptide ([…]). […] The lyophilized labeled peptide was diluted in 100% DMF (Dimethylformamide) to a final concentration of 10 mM. Subsequent dilutions were carried out using 0.5 mg/ml bovine-γ-globulin (BGG) in 1×PBS.
Soluble HLA-A2:Ig dimer complexes were obtained from BD Biosciences. This fusion protein consists of two extracellular portions of the major histocompatibility complex (MHC) class I HLA-A2 domains fused to the […] of a mouse IgG1 antibody. Additional β2-microglobulin (Fitzgerald Industries) was added to the binding assays to retain the fusion protein in a functional state. […] The competitive binding assays were carried out at room temperature for an incubation period of 3 days.
Both labeled and unlabeled peptides were added to the reaction mixture before the HLA-A2:Ig fusion protein, ensuring that both peptides were presented simultaneously to the HLA molecule. To avoid peptide photobleaching, the reaction mixture was incubated within aluminum foil covered microcentrifuge tubes. After the 3 days incubation period, 20 µl of the reaction mixture was loaded into individual wells of a black, non-binding surface (NBS) 384 well plate (Corning). Controls included only buffer (blank), protein and pFITC. Each experiment was performed in quadruplicate and reported as the mean with standard deviation.

Where [2] appears, read: predicted 9-mer tested, fluorescence polarization competition with fluorescein-labeled […], room temperature, 3 days, quadruplicate, read-out: Binding affinity.

Where two headings read alike, the source gives them in different places. Where no end group is shown, it is not given here.

DRB1*0301, sequence (P01903 26-254, other chains not shown): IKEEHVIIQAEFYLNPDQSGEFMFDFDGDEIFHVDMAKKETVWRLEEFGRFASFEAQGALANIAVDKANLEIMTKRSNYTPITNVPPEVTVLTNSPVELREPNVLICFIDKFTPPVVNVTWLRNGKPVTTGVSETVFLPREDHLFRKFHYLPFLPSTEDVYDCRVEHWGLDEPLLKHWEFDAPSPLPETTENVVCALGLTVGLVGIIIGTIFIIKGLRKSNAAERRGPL
DRB1*1101, sequence (P01903 26-254, other chains not shown): as above
DRB1*1302, sequence (P01903 26-254 limits assumed, other chains not shown): as the sequence (P01903 26-254, other chains not shown) above

Take `CC[C@H](C)[C@H](NC(=O)[C@H](Cc1c[nH]c2ccccc12)NC(=O)[C@H](Cc1ccc(O)cc1)NC(=O)CNC(=O)[C@H](CCSC)NC(=O)[C@H](CC(=O)O)NC(=O)[C@H](C)NC(=O)[C@H](Cc1c[nH]cn1)NC(=O)[C@@H](NC(=O)[C@H](C)N)C(C)C)C(=O)N[C@@H](CCC(=O)O)C(=O)N[C@@H](CO)C(=O)N[C@@H](CCC(N)=O)C(=O)N[C@@H](CCCCN)C(=O)N[C@@H](CC(N)=O)C(=O)O` [NS1 193-207]: the IC50 on DRB1*0101 worked out at 1.2 µM; on DRB1*0301 it was 2.59 µM; against DRB1*0401 it was 3.54 µM; against DRB1*0404 it was 5.81 µM; against DRB1*0405, 3.24 µM; on DRB1*0701, 7.97 µM. The IC50 on DRB1*0802 turned out to be 12.9 µM; at DRB1*0901 ('-' distinct from ND), 9890 nM; at DRB1*1101, 13.9 µM; at DRB1*1302 ('-' distinct from ND), 33 nM; on DRB1*1501 it was 6.34 µM; against DRB3*0101, 0.024 µM. Also, the IC50 was 0.18 µM on DRB4*0101 and 10.4 µM at DRB5*0101.
As for `CC(C)C[C@H](NC(=O)[C@@H](N)CCCCN)C(=O)N[C@@H](CC(N)=O)C(=O)N[C@@H](CC(=O)O)C(=O)N[C@@H](Cc1c[nH]c2ccccc12)C(=O)N[C@@H](CC(=O)O)C(=O)N[C@@H](Cc1ccccc1)C(=O)N[C@H](C(=O)N[C@H](C(=O)O)C(C)C)C(C)C` [NS3_399–407], in experiment [1] (setting [2]), the IC50 is 0.11 µM.
As to GLFGKGSLV, the IC50 in experiment [1] (setting [2]) is 0.0029 µM.
Regarding RTNDWDFVV [DENV2 (1)], the IC50 in experiment [1] (read-out: IC50) came to 0.167 µM.
Compound KLTDWDFVV [DENV4] had an IC50 in [1] of 0.061 µM.
`CC(C)C[C@H](NC(=O)[C@H](C)NC(=O)[C@H](CC(C)C)NC(=O)[C@@H]1CCCN1)C(=O)N[C@@H](CCCCN)C(=O)N[C@@H](CCC(=O)O)C(=O)N[C@@H](Cc1ccccc1)C(=O)N[C@@H](CCCCN)C(=O)N[C@@H](CC(=O)O)C(=O)N[C@@H](Cc1ccccc1)C(=O)N[C@@H](C)C(=O)N[C@@H](C)C(=O)NCC(=O)N[C@@H](CCCNC(=N)N)C(=O)N[C@@H](CCCCN)C(=O)O` [NS3 605-619]: the IC50 was 4.35 µM against DRB1*0101; 4.44 µM on DRB1*0301; 4.73 µM at DRB1*0401; 2.22 µM on DRB1*0404; 5.55 µM on DRB1*0405; 3.45 µM against DRB1*0701. Moreover, the IC50 against DRB1*0802 amounted to 0.037 µM; on DRB1*0901 (DRB1*0901), 9320 nM; at DRB1*1101, 8.89 µM; at DRB1*1302 (DRB1*1302), 19600 nM; against DRB1*1501, 0.028 µM; on DRB3*0101 it was 3.38 µM. Also, the IC50 against DRB4*0101 came to 1.36 µM; on DRB5*0101, 0.02 µM.

Values taken from article PMC3794980, “Identification of Conserved and HLA Promiscuous DENV3 T-Cell Epitopes” (PLoS Neglected Tropical Diseases, 2013).
